The numbers were not newly measured in US11466400B2, “Finish composition” (Hexcel Corporation, priority 2018, dated 2022), which cites them from elsewhere.

As a reminder, the pKa is the negative logarithm of the acid dissociation constant.

Molecules are shown by their SMILES.

`O=C(O)CNCC(=O)O` [Iminodiacetic acid]: the pKa is reported as 1.873.
